Data set [1] concerns HT-29 cells. Nature of the data set: CCK-8 cell viability assay, HT-29. The class given is cell-based. The settings on record: HT-29 human colon cancer cells, CCK-8, 24 h, mean ± SEM, n = 3. On the procedure: (§1) Human colorectal adenocarcinoma cells (HT-29, ATCC® HTB-38), adenocarcinomic human alveolar basal epithelial cells (A549, ATCC® CCL-185), and prostate cancer (PC-3, ATCC® CRL-1435) were cultured in the growth medium, containing Roswell Park Memorial Institute Medium (RPMI1640) WelGENE, Daegu, Korea supplemented with 10% (v/v) fetal bovine serum (FBS, Gibco, Grand Island, NY, USA) and 1% antibiotics-antimycotics (Gibco). Human breast adenocarcinoma cells (MCF-7, ATCC® HTB-22™), hepatocellular carcinoma (HepG2, ATCC® HB-8065™), Rattus brain glioma (C6, ATCC ® CRL-2303™), and human renal carcinoma (Caki-2, ATCC® HTB-47™) cells were cultured in Dulbecco’s modified Eagle’s medium (DMEM, WelGENE, Daegu, Korea) supplemented with 10% (v/v) FBS (Gibco) and 1% antibiotics-antimycotics (Gibco). Mouse brain neural (NE-4C, ATCC® CRL-2925™) and human cervix adenocarcinoma cells (HeLa, ATCC® CCL-2™) were cultured in Eagle’s minimum essential medium (EMEM, ATCC® 30-2003™) supplemented with 10% FBS (Gibco) and 1% antibiotics-antimycotics (Gibco). Mouse liver normal cells (AML12, ATCC® CRL-2254™) were cultured in DMEM/F-12 (WelGENE) supplemented with 10% FBS (Gibco), 1 × ITS (10 μg/mL insulin, 5.5 μg/mL transferrin, 6.7 ng/mL selenium, Gibco), […] 1% antibiotics-antimycotics (Gibco). Human breast epithelial cells (MCF 10A, ATCC® CRL-10317™) were cultured in DMEM/F-12 (WelGENE) supplemented with 5% horse serum (Gibco), 20 ng/mL epidermal growth factor (EGF, Peprotech Inc., Rocky Hill, NJ, USA), […] (Sigma-Aldrich, St. Louis, MO, USA), 100 ng/mL colera toxin (Sigma-Aldrich), 10 μg/mL insulin (Sigma-Aldrich) and 1% antibiotics- (Gibco). Human colon normal epithelial cells (FHC, ATCC® CRL-18317™) were cultured in DMEM/F-12 (WelGENE) supplemented with 10% FBS (Gibco), 10 ng/mL cholera toxin (Sigma-Aldrich), 20 ng/mL EGF (Peprotech Inc.), 100 μg/mL hydrocortisone (Sigma-Aldrich), 1 × ITS (10 μg/mL insulin, 5.5 μg/mL transferrin, 6.7 ng/mL selenium, Gibco) and 1% antibiotics-antimycotics (with 100 units penicillin, 100 μg streptomycin and 250 ng amphotericin B per mL, Gibco). Cells were incubated in a humidified 5% CO2 atmosphere at 37 °C.
(§2) To evaluate cytotoxicity, cells were seeded in a 96-well plate (FHC, 0.5 × 10^4 cells/well; Caki-2 and MCF 10A, 1 × 10^4 cells/well; AML12, 1.2 × 10^4 cells/well; HeLa, HEK-293, A549, and PC-3, 1.5 × 10^4 cells/well; HT-29, MCF-7, C6, HepG2, and NE-4C, 2 × 10^4 cells/well). […] In addition, cell counting kit-8 (CCK-8, Dojindo Laboratories, Kumamoto, Japan) solution was added to each well, and the plate was incubated for 2 h. The absorbance was then measured at 450 nm using a microplate reader (SpectraMax i3, Molecular Devices, San Jose, CA, USA). The IC50 and logIC50 values were calculated in GraphPad Prism (GraphPad Prism Software Inc. Version 5.02, San Diego, CA, USA). All experiments were performed, independently, three times. The graph of logIC50 values represents the average value.

Data set [2] concerns FHC cells. Nature of the data set: CCK-8 cell viability assay, FHC normal cells. The format is cell-based. To be noted: FHC normal human colon epithelial cells, CCK-8, 24 h, mean ± SEM, n = 3. On the procedure:
as §1, §2
On the technique in general: Formazan colour is commonly taken as a measure of viable cells.

The nature of data set [3]: Solubility in water / aqueous media. The class given is physicochemical.
For data set [4], the system named is HeLa cells. Nature of the data set: CCK-8 cell viability assay, HeLa. The format is cell-based. The settings on record: HeLa human cervical cancer cells, CCK-8, 24 h, mean ± SEM, n = 3. On the procedure: as §1, §2
Data set [5] concerns Caki-2 cells. The data set can be described thus: CCK-8 cell viability assay, Caki-2. The format is cell-based. To be noted: Caki-2 human renal cancer cells, CCK-8, 24 h, mean ± SEM, n = 3. On the procedure: as §1, §2
Data set [6] concerns C6 cells. The data set can be described thus: CCK-8 cell viability assay, C6. The class given is cell-based, Rattus. The settings on record: C6 brain glioma cells, CCK-8, 24 h, mean ± SEM, n = 3. The method, then:
as §1, §2

Data set [7] relates to AML12 cells. The data set can be described thus: CCK-8 cell viability assay, AML12 normal cells. The class given is cell-based. To be noted: AML12 normal mouse liver hepatocyte cells, CCK-8, 24 h, mean ± SEM, n = 3. On the procedure:
as §1, §2

Data set [8] concerns PC-3 cells. The data set can be described thus: CCK-8 cell viability assay, PC-3. The class given is cell-based. To be noted: PC-3 human prostate cancer cells, CCK-8, 24 h, mean ± SEM, n = 3. On the procedure: as §1, §2
Data set [9] relates to MCF-10A cells. Nature of the data set: CCK-8 cell viability assay, MCF-10A normal cells. The format is cell-based. The settings on record: MCF-10A normal human breast epithelial cells, CCK-8, 24 h, mean ± SEM, n = 3. On the procedure: as §1, §2
Data set [10] concerns HepG2 cells. The data set can be described thus: CCK-8 cell viability assay, HepG2. To be noted: HepG2 human hepatic carcinoma cells, CCK-8, 24 h, mean ± SEM, n = 3. The format is cell-based. On the procedure: as §1, §2
The nature of data set [11]: Stability in buffered aqueous solution by UV-Vis spectroscopy. The format is physicochemical. The method, then:
An indispensable feature of any promising anticancer agent is its thermodynamic stability in aqueous media. All prospective agents should be able to reach their target under the conditions encountered in living organisms. Therefore, the stability of the compounds was measured at 1 mM in phosphate-buffered saline (PBS) solution using UV–Vis spectroscopy. […] The stability of the metal complexes is often dependent on the pH value and the pH 4.5–5.0 is crucial since endosomal uptake of the complexes by lysosomes can occur.

Data set [12] concerns NE-4C cells. The data set can be described thus: CCK-8 cell viability assay, NE-4C normal cells. The class given is cell-based. To be noted: NE-4C mouse brain neural stem cells, CCK-8, 24 h, mean ± SEM, n = 3. The method, then:
as §1, §2

Data set [13] concerns A549 cells. The data set can be described thus: CCK-8 cell viability assay, A549. The class given is cell-based. The settings on record: A549 human lung cancer cells, CCK-8, 24 h, mean ± SEM, n = 3. The method, then: as §1, §2
For data set [14], the system named is MCF-7 cells. Nature of the data set: CCK-8 cell viability assay, MCF-7. The format is cell-based. To be noted: MCF-7 human breast cancer cells, CCK-8, 24 h, mean ± SEM, n = 3. On the procedure:
as §1, §2

The subject of data set [15] is HEK-293 cells. The data set can be described thus: CCK-8 cell viability assay, HEK-293 normal cells. The class given is cell-based. The settings on record: HEK-293 human embryonic kidney cells, CCK-8, 24 h, mean ± SEM, n = 3. On the procedure:
as §2

Structures are written as SMILES. Entries after “also recorded” stand apart in the source; their conditions may differ.

The record followed here is publication PMC8399196, “Synthesis, Characterization, and Anticancer Activity of Benzothiazole Aniline Derivatives and Their Platinum (II) Complexes as New Chemotherapy Agents” (Pharmaceuticals, 2021).

With `O=C(Nc1ccc(-c2nc3ccccc3s2)cc1)C1C[NH2+][Pt-2]([Cl])([Cl])[NH2+]1` (stereo not shown) [Compound L1Pt], the IC50 is 42.6 ± 5.6 µM in data set [1]; 64.3 ± 2.4 µM in data set [2]; 64.7 ± 0.3 µM in data set [4]; 106 ± 8.5 µM in data set [5]; 93.3 ± 22.7 µM in [6]; 139 ± 0.8 µM in [7]. The 50% inhibitory concentration (IC50) is 55.7 ± 7.5 µM in data set [8]; 46.9 ± 5.1 µM in [9]; 7.5 ± 0.1 µM in [10]; 25.7 ± 1.7 µM in data set [12]; 167 ± 11.2 µM in data set [13]; 59 ± 11 µM in [14]. The compound further returned an IC50 in data set [15] of 54.9 ± 2.8 µM. Further, the “Solubility in water / aqueous media” value in [3] is “poor solubility in aqueous media”. Further, the “Stability, time-dependent UV-Vis spectrum” value in data set [11] (1 mM in PBS (L1Pt: 2% DMSO in PBS), physiological pH 7.4, t = 0, 7, 24 h, 200-450 nm) is “did not display any significant changes throughout 24 h; also recorded: remains stable over 24 h”. The “Stability, time-dependent UV-Vis spectrum at other pH-values” in data set [11] (1 mM in PBS, acidic (pH 2), weakly acidic (pH 5), alkaline (pH 12), t = 0, 7, 24 h) was “no obvious changes in the absorptions peak”.

What is called IC50 is the point on the concentration scale where inhibition reaches its midpoint. A high value points to a need for much substance.
